Where two headings read alike, the source gives them in different places.
How the values were obtained:
[1] = tested on: bronchospastic reactions induced with aerosols of acetylcholine, histamine and ascaris extract; assay: Pulmonary function test on the anaesthetized dog: inhibition of bronchospastic reactions induced with aerosols of acetylcholine, histamine and ascaris extract; type: in vivo
[2] = background statement; cited from earlier work
[3] = cited from earlier work; for therapeutic range / side-effects: background statement
[4] = tested on: histamine-induced bronchospasm; assay: Bronchospasmolytic activity (Konzett-Rossler): inhibition of histamine-induced bronchospasm in guinea-pigs; type: in vivo; conditions: Cavia porcellus, guinea-pig, urethane anaesthesia, read-out: Bronchospasmolytic effect (ED50) compared to histamine
Description: (§1) The test substances were administered in aqueous solution either intravenously (i.v.) or intraduodenally (i.d.). The ED50 values, which represent that dose in mg/kg at which the experimentally produced spasm is decreased by one half compared to that in untreated animals, were determined graphically from the dose-activity curves.

[5] = tested on: serotonine-induced bronchospasm; assay: Bronchospasmolytic activity (Konzett-Rossler): inhibition of serotonine-induced bronchospasm in guinea-pigs; type: in vivo; conditions: Cavia porcellus, guinea-pig, urethane anaesthesia, read-out: Bronchospasmolytic effect (ED50) compared to serotonine
Description: as §1

[6] = Acute toxicity, mortality within 7 days among NMRI mice after single administration; conditions: in vivo, mouse
Excerpt: (§2) Determination of the LD50 values was by the standard method of the mortality occurring within 7 days among NMRI mice after a single intravenous (i.v.), intraperitoneal (i.p.) or oral (p.o.) administration.
*determined by the method of Litchfield and Wilcoxon (J. Pharmacol. exp.

[7] = tested on: acetylcholine-induced bronchospasm; assay: Bronchospasmolytic activity (Konzett-Rossler): inhibition of acetylcholine-induced bronchospasm in guinea-pigs; type: in vivo; conditions: Cavia porcellus, guinea-pig, urethane anaesthesia, read-out: Bronchospasmolytic effect (ED50) compared to acetylcholine
Description: as §1

Ratio of LD50 to ED50 = type: in vivo, mouse (LD50); guinea-pigs (ED50)
Description: as §1, §2

[8] = background statement; cited from earlier work; remark: listed apart in the source
NMRI mice = conditions: mouse, i.v.; according to German Offenlegungsschrift 2,716,402; 10080 min; cited from earlier work
central nervous system [9] = conditions: according to German Offenlegungsschrift No. 2,716,402; markedly less than theophylline; cited from earlier work
central nervous system [10] = tested on: central nervous system; parameters: species or system mice; conditions: mouse, in vivo, po
Description: In contrast, the compounds of the formula I according to the invention have no component stimulating the central nervous system, but, on the contrary, exert a slight depressant effect on the central nervous system which is assessed to be particularly advantageous from the therapeutic point of view. Thus, the spontaneous motility of mice, for example, is decreased by 53% for a period of 11 hours after oral administration of 50 mg/kg of the compound from Example 1.

[11] = tested on: bronchospasm induced with bradykinin; assay: Inhibitory effect on bronchospasm induced in guinea-pigs with bradykinin; type: in vivo; conditions: for ED50: Cavia porcellus, read-out: ED50, bronchospasm induced with bradykinin
Excerpt: Since it is regarded as proven that, apart from the biogenic amines, acetylcholine, histamine and serotonine, listed in Table 4, bradykinin also plays an important part as a mediator substance in the provocation of asthma attacks, the inhibitory effect on the bronchospasm induced in guinea-pigs with bradykinin was investigated.

[12] = LD50 i.v. mouse, ED50 i.v. guinea-pig
[13] = LD50 i.p. mouse, ED50 i.v. guinea-pig
[14] = LD50 i.v. mouse from German Offenlegungsschrift 2,716,402, ED50 i.v. guinea-pig

SMILES | ED50 ([4]; iv) | ED50 ([5]; iv) | LD50 at 168 h ([6]; iv) | ED50 ([7]; iv) | ratio of LD50 to ED50 (head is drawing 107) (Ratio of LD50 to ED50; [12]) | also measured
Cn1c(=O)c2[nH]cnc2n(C)c1=O [theophylline, 1,3-dimethylxanthine] | – | – | – | – | – | effect on bronchospastic reactions ([1]; doses up to 20 mg/kg i.v.): no effect; water solubility [2]: lack of water solubility; therapeutic range [3]: very narrow therapeutic range
NCCN [ethylenediamine] | – | – | – | – | – | side-effects [3]: deleterious effect on the cardiovascular system
CCn1c(=O)c2c(ncn2CC)n(CCCCC(O)CO)c1=O (centres unmarked) [Example 8, 1,7-Diethyl-3-(5,6-dihydroxyhexyl)xanthine] | 6.5 mg/kg | 2 mg/kg | > 300 mg/kg | 6.5 mg/kg | > 60 | –
CCCCn1c(=O)c2c(ncn2CCCCC(O)CO)n(CC)c1=O (centres unmarked) [Example 26] | 1.6 mg/kg | 0.6 mg/kg | 205 mg/kg | 2 mg/kg | 146 | –
CCCn1c(=O)n(CCCCC(O)CO)c(=O)c2c1ncn2C (centres unmarked) [Example 10] | 3 mg/kg | 3 mg/kg | 250 mg/kg | 3 mg/kg | 83 | –
CCCn1c(=O)n(C)c(=O)c2c1ncn2CCCCC(O)CO (centres unmarked) [Example 30] | 2 mg/kg | – | 250 mg/kg | 6.5 mg/kg | 59 | –
CCCCCn1c(=O)c2c(ncn2CCCCC(O)CO)n(CC)c1=O (centres unmarked) [Example 28] | 3 mg/kg | 3 mg/kg | 200 mg/kg | 2 mg/kg | 75 | –
CCn1c(=O)n(C)c(=O)c2c1ncn2CCCCC(O)CO (centres unmarked) [Example 24] | 2 mg/kg | 10 mg/kg | 300 mg/kg | 6.5 mg/kg | 49 | –
CCn1c(=O)c2c(ncn2CCCCC(O)CO)n(CC)c1=O (centres unmarked) [Example 2, 1,3-Diethyl-7-(5,6-dihydroxyhexyl)xanthine] | 2 mg/kg | 2 mg/kg | 325 mg/kg | 2 mg/kg | 163 | –
CCCn1c(=O)c2c(ncn2CCCC(O)CO)n(CCC)c1=O (centres unmarked) [Example 13] | 6.5 mg/kg | – | – | 6.5 mg/kg | – | LD50 at 168 h ([6]; ip): 900 mg/kg; ratio of LD50 to ED50 (head is drawing 107) (Ratio of LD50 to ED50; [13]): 138
CCn1c(=O)n(C(C)C)c(=O)c2c1ncn2CCCCC(O)CO (centres unmarked) [Example 25] | 6.5 mg/kg | 2 mg/kg | > 400 mg/kg | 2 mg/kg | > 114 | –
Cn1c(=O)c2c(ncn2CC(O)CO)n(C)c1=O (centres unmarked) [Diphylline, 7-(2,3-dihydroxypropyl)-1,3-dimethylxanthine] | > 30 mg/kg | > 30 mg/kg | – | > 30 mg/kg | – | water solubility [2]: good water solubility; bronchospasmolytic activity compared to theophylline [8]: drastic decrease in the bronchospasmolytic activity; ratio of LD50 to ED50 (head is drawing 107) (Ratio of LD50 to ED50; [14]): < 30; Toxicity LD50 (NMRI mice): 886 mg/kg; side-effects [3]: much less pronounced; stimulation of the central nervous system (central nervous system [9]): stimulation of the central nervous system
CCCCCn1c(=O)c2c(ncn2CCCCC(O)CO)n(C)c1=O (centres unmarked) [Example 21] | 3 mg/kg | 3 mg/kg | 155 mg/kg | 3 mg/kg | 52 | –
CCCn1c(=O)c2c(ncn2CC(O)CO)n(CCC)c1=O (centres unmarked) [7-(2,3-dihydroxypropyl)-1,3-dipropylxanthine] | 6.5 mg/kg | 10 mg/kg | – | > 10 mg/kg | – | water solubility [2]: readily soluble in water; bronchospasmolytic activity compared to theophylline [8]: almost to reach the bronchospasmolytic activity of theophylline; ratio of LD50 to ED50 (head is drawing 107) (Ratio of LD50 to ED50; [14]): < 32; Toxicity LD50 (NMRI mice): 287 mg/kg; acute toxicity compared to theophylline ([3]; German Offenlegungsschrift No. 2,716,402): lower acute toxicity; side-effects [3]: fewer disadvantageous side-effects; stimulation of the central nervous system (central nervous system [9]): stimulation of the central nervous system
CCCCn1c(=O)c2c(ncn2CCCCC(O)CO)n(C)c1=O (centres unmarked) [Example 19] | 2 mg/kg | 3 mg/kg | 147 mg/kg | 2 mg/kg | 63 | –
CCCn1c(=O)c2c(ncn2CCCCCC(O)CO)n(CC)c1=O (centres unmarked) [Example 51] | 2 mg/kg | – | 300 mg/kg | 2 mg/kg | 150 | –
CCCn1c(=O)c2c(ncn2CCCC(O)C(C)O)n(CC)c1=O (centres unmarked) [Example 33] | 3 mg/kg | 2 mg/kg | > 200 mg/kg | 6 mg/kg | > 55 | –
CCCCn1c(=O)n(CCCC(O)CO)c(=O)c2c1ncn2C (centres unmarked) [Example 7, 3-Butyl-1-(4,5-dihydroxypentyl)-7-methylxanthine] | 6.5 mg/kg | – | > 200 mg/kg | 3 mg/kg | > 42 | –
CC(C)CCn1c(=O)c2c(ncn2CCCCC(O)CO)n(C)c1=O (centres unmarked) [Example 22] | 3 mg/kg | 6.5 mg/kg | 167 mg/kg | 1 mg/kg | 48 | –
Cn1c(=O)c2[nH]cnc2n(C)c1=O.NCCN [Theophylline-ethylenediamine, theophylline-ethylenediamine, reference compound] | 5.6 mg/kg | 7.3 mg/kg | 195 mg/kg | 8.3 mg/kg | – | increase in spontaneous motility (central nervous system [10]; 30 mg/kg): 186%; LD50 at 168 h ([6]; po): 550 mg/kg; ED50 ([11]; iv): 3 to 10 mg/kg; ED50 [11]: 25 to 40 mg/kg; therapeutic range [3]: not associated with a significant increase in the therapeutic range
CCCn1c(=O)c2c(ncn2CCCCC(O)CO)n(CC)c1=O (centres unmarked) [Example 1, 3-Ethyl-7-(5,6-dihydroxyhexyl)-1-propylxanthine] | 0.2 mg/kg | 0.3 mg/kg | 254 mg/kg | 2 mg/kg | 305 | decrease in spontaneous motility (central nervous system [10]; 50 mg/kg): 53%; ED50 ([4]; i.d. (intraduodenal)): 25 mg/kg; inhibitory effect on bronchospastic reactions ([1]; 12 mg/kg i.v.): significant inhibitory effect; ED50 ([5]; i.d. (intraduodenal)): 15 mg/kg; LD50 at 168 h ([6]; po): 1450 mg/kg; ED50 ([7]; i.d. (intraduodenal)): 6.3 mg/kg; ED50 ([11]; iv, guinea-pigs): 1 to 3 mg/kg; ED50 ([11]; i.d., guinea-pigs): 4 to 6.3 mg/kg; times more effective than theophylline-ethylenediamine, bradykinin bronchospasm ([11]; i.d.): about 6 times; times more effective than theophylline-ethylenediamine, bradykinin bronchospasm ([11]; i.v.): about 3 times; ratio of LD50 to ED50 (head is drawing 107) (Ratio of LD50 to ED50; LD50 p.o. mouse, ED50 i.d. guinea-pig): 94
CCn1c(=O)c2c(ncn2CCCCC(O)CO)n(C)c1=O (centres unmarked) [Example 17] | 6.5 mg/kg | 6.5 mg/kg | > 300 mg/kg | 2 mg/kg | > 60 | –
CCCn1c(=O)c2c(ncn2CCCCC(O)CO)n(C)c1=O (centres unmarked) [Example 18] | 6.5 mg/kg | 6.5 mg/kg | 300 mg/kg | 6.5 mg/kg | 46 | –
CCCn1c(=O)c2c(ncn2CCC(O)CO)n(CCC)c1=O (centres unmarked) [Example 12] | 10 mg/kg | 10 mg/kg | – | 6.5 mg/kg | – | LD50 at 168 h ([6]; ip): > 600 mg/kg; ratio of LD50 to ED50 (head is drawing 107) (Ratio of LD50 to ED50; [13]): > 68

Reference: patent US4616020A, “Medicaments, vicinal dihydroxyalkylxanthines contained therein, processes for the preparation of these xanthine compounds and intermediate products suitable for these” (Hoechst Aktiengesellschaft, priority 1981, dated 1986)
